Results on 1 molecule are retold here after ChEMBL document CHEMBL1136688, “Synthesis and SAR of aminoalkoxy-biaryl-4-carboxamides: novel and selective histamine H3 receptor antagonists” (Bioorg Med Chem Lett, 2003).

Series [1] addresses Sodium-dependent serotonin transporter (Homo sapiens, UniProt P31645). Briefly: Binding affinity towards human UPTK-Serotonin transporter.
Series [2] deals with T1, Histamine H3 receptor (Homo sapiens, UniProt Q9Y5N1). Briefly: Binding affinity for human recombinant H3 receptor.
The target in another series is T2, D(4) dopamine receptor (Homo sapiens, UniProt P21917).
T2 sequence (P21917 whole entry): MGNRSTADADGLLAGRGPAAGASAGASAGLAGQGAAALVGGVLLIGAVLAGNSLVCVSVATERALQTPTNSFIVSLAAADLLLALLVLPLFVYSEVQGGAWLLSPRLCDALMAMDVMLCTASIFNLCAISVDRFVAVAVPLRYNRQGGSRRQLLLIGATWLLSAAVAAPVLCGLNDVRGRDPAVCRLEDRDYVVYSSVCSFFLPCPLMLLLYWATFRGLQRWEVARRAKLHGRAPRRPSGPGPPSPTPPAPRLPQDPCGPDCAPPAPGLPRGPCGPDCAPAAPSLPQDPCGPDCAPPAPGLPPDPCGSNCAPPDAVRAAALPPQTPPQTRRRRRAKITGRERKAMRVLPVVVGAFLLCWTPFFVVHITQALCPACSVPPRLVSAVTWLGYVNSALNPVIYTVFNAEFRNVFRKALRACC
Kind of series: Binding affinity towards human D4.2 receptor.

Series [3] is described as follows: Plasma clearance after oral administration (2.5 mg/kg) in dog was determined. The format is ADME, organism-based, Canis lupus familiaris. The settings on record: read-out: Clp (converted).
The nature of series [4]: Volume distribution after oral administration (2.5 mg/kg) in monkey was determined. It counts as ADME, organism-based. The settings on record: cercopithecidae, in vivo.
A short description of series [5]: Half life period after oral administration (2.5 mg/kg) in dog was determined. It counts as ADME, organism-based, Canis lupus familiaris. Particulars: in vivo.
The target in another series is Histamine H1 receptor (Homo sapiens, UniProt P35367). Briefly: Binding affinity towards human histaminergic (H1) receptor.
The nature of series [6]: Bioavailability after oral administration (2.5 mg/kg) in dog was determined. The format is ADME, organism-based, Canis lupus familiaris. Particulars: in vivo.
For series [7], the target named is T3, Alpha-2C adrenergic receptor (Homo sapiens, UniProt P18825).
T3 sequence (P18825 whole entry): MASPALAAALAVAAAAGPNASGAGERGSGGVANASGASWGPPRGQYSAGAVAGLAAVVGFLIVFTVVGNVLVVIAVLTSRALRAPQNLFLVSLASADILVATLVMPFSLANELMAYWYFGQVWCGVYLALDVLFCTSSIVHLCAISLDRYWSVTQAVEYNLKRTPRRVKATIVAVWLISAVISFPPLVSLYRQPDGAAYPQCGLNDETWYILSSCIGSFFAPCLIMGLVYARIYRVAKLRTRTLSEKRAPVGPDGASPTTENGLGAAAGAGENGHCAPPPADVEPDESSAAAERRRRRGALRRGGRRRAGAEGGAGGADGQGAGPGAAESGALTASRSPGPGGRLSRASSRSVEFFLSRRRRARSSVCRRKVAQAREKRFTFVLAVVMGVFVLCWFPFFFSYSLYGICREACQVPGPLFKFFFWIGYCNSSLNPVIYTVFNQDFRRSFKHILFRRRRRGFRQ
Briefly: Binding affinity towards human Alpha-2C adrenergic receptor.

In series [8] the target is T4, Muscarinic acetylcholine receptor M1 (Homo sapiens, UniProt P11229).
T4 sequence (P11229 whole entry): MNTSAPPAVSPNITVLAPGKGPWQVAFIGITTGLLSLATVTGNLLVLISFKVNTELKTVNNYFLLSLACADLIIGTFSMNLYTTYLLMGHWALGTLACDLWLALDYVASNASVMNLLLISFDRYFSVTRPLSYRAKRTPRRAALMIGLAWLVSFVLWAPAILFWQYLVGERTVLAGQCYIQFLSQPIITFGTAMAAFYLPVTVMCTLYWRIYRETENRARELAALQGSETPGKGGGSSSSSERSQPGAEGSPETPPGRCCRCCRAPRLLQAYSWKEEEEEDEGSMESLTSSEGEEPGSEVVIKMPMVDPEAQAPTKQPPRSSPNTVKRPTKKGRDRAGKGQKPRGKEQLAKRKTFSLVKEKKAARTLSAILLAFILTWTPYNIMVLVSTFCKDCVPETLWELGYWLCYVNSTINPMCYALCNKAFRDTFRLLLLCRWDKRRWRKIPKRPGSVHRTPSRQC
Kind of series: Binding affinity towards human muscarinic M1 receptor.

Series [9] deals with T1, Histamine H3 receptor. Kind of series: Affinity to bind with human cloned H3 receptor using radioligand binding assay. The settings on record: read-out: pA2 (converted).
The target of the next series is Histamine H4 receptor (Homo sapiens, UniProt Q9H3N8). Briefly: Binding affinity towards human histaminergic (H4) receptor.
Series [10] concerns the target T5, Muscarinic acetylcholine receptor M2 (Homo sapiens, UniProt P08172).
T5 sequence (P08172 whole entry): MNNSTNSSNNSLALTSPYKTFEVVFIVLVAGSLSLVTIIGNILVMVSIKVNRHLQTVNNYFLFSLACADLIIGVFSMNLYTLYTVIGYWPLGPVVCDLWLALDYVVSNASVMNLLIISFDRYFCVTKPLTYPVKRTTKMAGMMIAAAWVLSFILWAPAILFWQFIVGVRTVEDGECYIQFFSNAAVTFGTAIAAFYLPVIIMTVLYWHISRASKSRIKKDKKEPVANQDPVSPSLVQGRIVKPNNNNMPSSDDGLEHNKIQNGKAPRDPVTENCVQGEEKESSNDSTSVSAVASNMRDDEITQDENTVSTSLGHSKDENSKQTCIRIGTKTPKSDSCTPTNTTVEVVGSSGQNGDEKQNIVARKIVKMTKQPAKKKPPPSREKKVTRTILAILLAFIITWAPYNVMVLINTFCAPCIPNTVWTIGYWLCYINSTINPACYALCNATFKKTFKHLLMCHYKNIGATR
Kind of series: Binding affinity towards human muscarinic M2 receptor.

Series [11] deals with Sodium-dependent dopamine transporter (Homo sapiens, UniProt Q01959). Kind of series: Binding affinity towards human UPTK-DA transporter.
Series [12] in a line: The peak blood concentration after 5 hr administration (2.5 mg/kg) in dog was determined. The format is ADME, organism-based, Canis lupus familiaris. Also on record: dose 2.5 mg/kg.
For the next series, the target named is Histamine H2 receptor (Homo sapiens, UniProt P25021). Briefly: Binding affinity towards human histaminergic (H2) receptor.
Series [13] is described as follows: Plasma clearance after oral administration (2.5 mg/kg) in monkey was determined. It counts as ADME, organism-based. Particulars: cercopithecidae, read-out: Clp (converted).
A short description of series [14]: The peak plasma concentration after 5 hr administration (2.5 mg/kg) in monkey was determined. It counts as ADME, organism-based. Also on record: dose 2.5 mg/kg. Particulars: cercopithecidae.
Another series is filed under the species Cavia porcellus. Briefly: Compound was tested for blocked alpha-methylhistamine-induced inhibition of electrical field-stimulation induced twitch response in guinea pig ileum. It counts as functional. Particulars: read-out: pA2 (converted).
The nature of series [15]: Bioavailability after oral administration (2.5 mg/kg) in monkey was determined. It counts as ADME, organism-based. Particulars: cercopithecidae, in vivo.
Series [16] can be described thus: Half life period after oral administration (2.5 mg/kg) in monkey was determined. It counts as ADME, organism-based. Particulars: cercopithecidae, in vivo.
Series [17] addresses Muscarinic acetylcholine receptor M3 (Homo sapiens, UniProt P20309). Briefly: Binding affinity towards human muscarinic M3 receptor.
The target of series [18] is Histamine H3 receptor (Rattus norvegicus) (UniProt Q9QYN8). Particulars: Brain.
The target of series [19] is Sodium-dependent noradrenaline transporter (Homo sapiens, UniProt P23975). Kind of series: Binding affinity towards human UPTK-NE transporter.
Chain of Sodium-dependent noradrenaline transporter (P23975 whole entry): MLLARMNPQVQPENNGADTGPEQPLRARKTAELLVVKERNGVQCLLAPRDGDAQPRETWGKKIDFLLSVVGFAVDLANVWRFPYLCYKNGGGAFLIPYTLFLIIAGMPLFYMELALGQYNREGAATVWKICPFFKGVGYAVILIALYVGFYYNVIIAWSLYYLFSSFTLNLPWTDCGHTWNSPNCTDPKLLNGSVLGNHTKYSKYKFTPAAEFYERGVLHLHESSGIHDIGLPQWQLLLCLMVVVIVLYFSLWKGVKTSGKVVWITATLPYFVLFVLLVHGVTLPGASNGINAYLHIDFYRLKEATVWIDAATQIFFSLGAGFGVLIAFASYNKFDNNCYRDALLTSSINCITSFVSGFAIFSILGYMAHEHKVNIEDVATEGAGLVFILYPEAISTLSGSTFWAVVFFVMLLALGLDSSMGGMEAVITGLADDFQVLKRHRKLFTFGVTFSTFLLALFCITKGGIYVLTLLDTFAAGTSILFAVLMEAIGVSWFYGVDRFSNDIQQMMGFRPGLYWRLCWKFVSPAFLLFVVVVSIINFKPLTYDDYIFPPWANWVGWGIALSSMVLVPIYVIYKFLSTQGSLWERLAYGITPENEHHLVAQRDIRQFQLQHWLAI

T1 sequence (Q9Y5N1 whole entry): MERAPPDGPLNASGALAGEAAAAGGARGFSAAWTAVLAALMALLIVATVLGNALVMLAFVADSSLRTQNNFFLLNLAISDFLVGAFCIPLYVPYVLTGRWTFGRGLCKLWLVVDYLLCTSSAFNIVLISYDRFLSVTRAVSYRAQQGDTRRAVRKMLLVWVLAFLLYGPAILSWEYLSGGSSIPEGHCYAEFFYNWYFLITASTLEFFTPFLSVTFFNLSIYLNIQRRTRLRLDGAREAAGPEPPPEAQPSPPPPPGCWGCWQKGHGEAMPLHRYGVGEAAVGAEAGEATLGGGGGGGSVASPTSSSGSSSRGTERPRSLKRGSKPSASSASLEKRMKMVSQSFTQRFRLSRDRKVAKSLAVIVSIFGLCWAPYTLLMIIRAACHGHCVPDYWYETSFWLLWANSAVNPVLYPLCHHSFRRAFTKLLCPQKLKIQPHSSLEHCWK
Chain of Histamine H2 receptor (P25021 whole entry): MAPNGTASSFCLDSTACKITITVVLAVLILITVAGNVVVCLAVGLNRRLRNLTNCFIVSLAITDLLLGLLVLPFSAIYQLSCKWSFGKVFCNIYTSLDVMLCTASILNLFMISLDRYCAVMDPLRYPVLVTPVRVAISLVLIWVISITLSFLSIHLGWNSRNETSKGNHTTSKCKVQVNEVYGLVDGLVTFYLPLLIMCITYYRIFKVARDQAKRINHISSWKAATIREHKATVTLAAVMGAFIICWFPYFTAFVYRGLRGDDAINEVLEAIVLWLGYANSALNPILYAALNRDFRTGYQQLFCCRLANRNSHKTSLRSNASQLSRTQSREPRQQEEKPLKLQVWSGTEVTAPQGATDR
Chain of Histamine H1 receptor (P35367 whole entry): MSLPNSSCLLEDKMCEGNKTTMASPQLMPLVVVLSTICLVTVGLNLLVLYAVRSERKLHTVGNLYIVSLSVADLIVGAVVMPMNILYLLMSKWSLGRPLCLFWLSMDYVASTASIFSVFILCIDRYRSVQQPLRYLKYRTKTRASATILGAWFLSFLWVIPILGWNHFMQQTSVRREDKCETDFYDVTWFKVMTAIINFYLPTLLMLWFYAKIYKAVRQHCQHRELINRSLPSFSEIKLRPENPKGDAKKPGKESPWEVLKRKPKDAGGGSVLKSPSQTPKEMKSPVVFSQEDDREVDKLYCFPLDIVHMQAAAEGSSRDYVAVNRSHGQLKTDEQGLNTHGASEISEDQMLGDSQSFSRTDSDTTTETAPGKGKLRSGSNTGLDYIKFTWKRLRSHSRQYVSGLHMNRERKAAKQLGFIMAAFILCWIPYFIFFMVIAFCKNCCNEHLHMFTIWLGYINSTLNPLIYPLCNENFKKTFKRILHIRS
Chain of Muscarinic acetylcholine receptor M3 (P20309 whole entry): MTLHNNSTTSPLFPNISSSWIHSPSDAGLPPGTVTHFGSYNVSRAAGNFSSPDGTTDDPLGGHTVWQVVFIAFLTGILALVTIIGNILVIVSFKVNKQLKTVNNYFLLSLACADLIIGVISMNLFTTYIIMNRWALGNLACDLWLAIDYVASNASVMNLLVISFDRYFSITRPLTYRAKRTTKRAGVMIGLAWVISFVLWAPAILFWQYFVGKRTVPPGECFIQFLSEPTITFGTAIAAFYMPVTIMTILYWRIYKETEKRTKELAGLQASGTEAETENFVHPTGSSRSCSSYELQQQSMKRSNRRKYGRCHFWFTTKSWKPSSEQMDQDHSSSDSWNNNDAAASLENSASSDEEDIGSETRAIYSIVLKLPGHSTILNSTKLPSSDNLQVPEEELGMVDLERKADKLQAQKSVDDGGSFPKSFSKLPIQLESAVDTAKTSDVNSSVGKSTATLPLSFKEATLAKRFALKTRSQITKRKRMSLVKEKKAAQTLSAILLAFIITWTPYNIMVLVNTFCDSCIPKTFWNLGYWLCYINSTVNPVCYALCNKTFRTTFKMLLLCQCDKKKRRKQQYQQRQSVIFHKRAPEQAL
Chain of Histamine H4 receptor (Q9H3N8 whole entry): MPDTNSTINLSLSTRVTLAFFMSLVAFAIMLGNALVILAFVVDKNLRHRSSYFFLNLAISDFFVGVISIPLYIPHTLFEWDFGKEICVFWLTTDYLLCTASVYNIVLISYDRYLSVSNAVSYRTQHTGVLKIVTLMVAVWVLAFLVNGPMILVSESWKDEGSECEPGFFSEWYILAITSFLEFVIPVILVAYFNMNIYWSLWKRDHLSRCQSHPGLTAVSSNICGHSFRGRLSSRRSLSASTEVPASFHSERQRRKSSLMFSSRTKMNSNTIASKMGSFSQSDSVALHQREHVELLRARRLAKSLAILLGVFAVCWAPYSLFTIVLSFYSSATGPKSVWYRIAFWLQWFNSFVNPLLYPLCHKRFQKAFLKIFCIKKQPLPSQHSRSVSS
Chain of Sodium-dependent serotonin transporter (P31645 whole entry): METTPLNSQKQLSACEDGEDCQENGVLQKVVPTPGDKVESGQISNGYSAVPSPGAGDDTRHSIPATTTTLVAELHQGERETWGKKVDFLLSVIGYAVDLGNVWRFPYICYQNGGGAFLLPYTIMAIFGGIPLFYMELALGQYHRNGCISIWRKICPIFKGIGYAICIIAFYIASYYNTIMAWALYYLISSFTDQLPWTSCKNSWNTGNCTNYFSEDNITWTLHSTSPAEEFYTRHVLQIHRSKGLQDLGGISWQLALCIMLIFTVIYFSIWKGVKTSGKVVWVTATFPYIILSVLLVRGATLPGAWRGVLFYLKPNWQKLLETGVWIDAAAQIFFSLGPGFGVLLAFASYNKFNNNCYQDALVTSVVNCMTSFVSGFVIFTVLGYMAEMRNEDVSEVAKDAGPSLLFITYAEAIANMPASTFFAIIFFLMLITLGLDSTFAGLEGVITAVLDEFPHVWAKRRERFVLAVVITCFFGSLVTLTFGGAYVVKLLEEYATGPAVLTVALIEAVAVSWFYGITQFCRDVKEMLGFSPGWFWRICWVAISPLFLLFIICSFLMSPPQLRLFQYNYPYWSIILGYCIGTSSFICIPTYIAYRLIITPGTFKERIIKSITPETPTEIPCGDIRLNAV
Chain of Histamine H3 receptor (Rattus norvegicus) (Q9QYN8 whole entry): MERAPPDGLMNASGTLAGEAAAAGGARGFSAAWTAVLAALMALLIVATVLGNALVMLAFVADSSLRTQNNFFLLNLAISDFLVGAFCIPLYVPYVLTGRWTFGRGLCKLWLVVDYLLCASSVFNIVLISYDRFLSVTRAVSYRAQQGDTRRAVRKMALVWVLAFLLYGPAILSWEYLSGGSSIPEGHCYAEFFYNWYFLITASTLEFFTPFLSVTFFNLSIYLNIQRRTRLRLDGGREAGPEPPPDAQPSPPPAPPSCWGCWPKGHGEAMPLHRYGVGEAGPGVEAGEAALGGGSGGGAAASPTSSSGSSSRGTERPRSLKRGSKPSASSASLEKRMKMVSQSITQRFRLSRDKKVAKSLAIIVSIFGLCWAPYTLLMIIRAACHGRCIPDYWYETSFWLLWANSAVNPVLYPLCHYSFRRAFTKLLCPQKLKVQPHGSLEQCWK
Chain of Sodium-dependent dopamine transporter (Q01959 whole entry): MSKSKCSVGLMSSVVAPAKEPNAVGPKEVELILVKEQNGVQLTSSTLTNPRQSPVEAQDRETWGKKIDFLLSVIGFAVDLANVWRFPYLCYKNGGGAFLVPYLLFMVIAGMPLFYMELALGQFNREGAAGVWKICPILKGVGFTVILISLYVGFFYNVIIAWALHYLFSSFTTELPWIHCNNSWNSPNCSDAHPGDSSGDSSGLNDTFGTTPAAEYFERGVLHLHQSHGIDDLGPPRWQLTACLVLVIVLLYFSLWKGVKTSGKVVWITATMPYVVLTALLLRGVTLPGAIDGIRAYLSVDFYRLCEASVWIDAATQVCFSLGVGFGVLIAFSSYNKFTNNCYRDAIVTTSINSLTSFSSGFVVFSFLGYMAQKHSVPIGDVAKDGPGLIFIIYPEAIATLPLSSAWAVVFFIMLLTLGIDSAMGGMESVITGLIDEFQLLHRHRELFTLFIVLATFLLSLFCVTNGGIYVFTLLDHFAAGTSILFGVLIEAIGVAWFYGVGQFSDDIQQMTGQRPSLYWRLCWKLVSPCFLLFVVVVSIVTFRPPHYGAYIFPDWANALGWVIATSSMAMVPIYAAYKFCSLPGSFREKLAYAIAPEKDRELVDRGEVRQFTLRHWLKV

Usually Ki stands for a measure of affinity in units of concentration, obtained from inhibition or displacement. In general, half-life refers to the time needed for the level to fall by half in the phase considered. As usually defined, the bioavailability is the share of a dose that reaches the circulation, judged against a reference dose that is usually intravenous. Usually Cmax stands for the peak of the concentration-time curve. The term pKb denotes the negative decadic logarithm of the Kb, by convention in mol/L. For `C[C@H]1CC[C@H](C)N1CCCOc1ccc(-c2ccc(C(=O)N3CCOCC3)cc2)cc1` [A-349,821], the Ki in series [1] is 3.55 µM; at Histamine H3 receptor [2] it was 0.00049 µM; on D(4) dopamine receptor it was 9.77 µM; at Histamine H1 receptor, 2.34 µM; in [7], 1.62 µM; in series [8], 1.62 µM. The inhibition constant Ki at Histamine H4 receptor is 10 µM; in series [10], 0.933 µM; in [11] it was 4.9 µM; at Histamine H2 receptor, 10 µM; in series [17] it was 1.66 µM; in series [19] it was 9.77 µM. The values for the CL/F in series [3] and in [13] were 10 mL/min/kg and 16.7 mL/min/kg, respectively. For the same molecule, the Vbeta in series [4] worked out at 7.5 L/kg. In addition, the half-life is 2.6 h in series [5] and 5.3 h in series [16]. The figures for the bioavailability in series [6] and in [15] were 33% and 78%, respectively. In addition, the Kb was 0.00214 µM on Histamine H3 receptor [9] and 0.000339 µM in the series filed under Cavia porcellus. The Cmax in series [12] came out at 310 ng/mL; in [14], 170 ng/mL. For the same molecule, in series [18], the pKb is 9.23.
